Test results: US20140128357A1, “METHODS OF PRODUCING AND USING BRASSINOSTEROIDS TO PROMOTE GROWTH, REPAIR AND MAINTENANCE OF SKELETAL MUSCLE AND SKIN” (Rutgers University, priority 2010, published 2014)

What was measured:
mice = settings: orally or subcutaneously; cited from earlier work
rats = settings: orally or subcutaneously; cited from earlier work
[1] = Cytotoxicity, MTT assay in 3T3 fibroblasts; type: cell-based, mouse; settings: mouse
Experimental: (§1) FIG. 9. Cell survival curves as measured by MTT assay for brassinosteroids 1-9 against the murine fibroblast cell line NIH-3T3. Cells were incubated with various concentrations of brassinosteroids (0.3-30 μM) for 24 h at 37° C. The mean absorbance of the control cells represented 100% cell proliferation, and the mean absorbance of treated cells was related to control values to determine sensitivity. Error bars represent standard error (n=6) from mean cell proliferation as determined by repeated experiments.
(§2) In various aspects, cell viability is measured and the effects of doses of compound and test reagents are tested in cell lines. In some aspects, cell viability was measured by the MTT (3-(4,5-Dimethylthiazol-2-yl)-2,5-diphenyltetrazolium bromide) assay in triplicate (Mosmann et al., J. Immunol. Methods 65:55-63, 1983) and quantified spectrophotometrically at 550 nm using a microplate reader (Molecular Devices, Sunnyvale, Calif.).
(§3) 3T3 fibroblasts were seeded in a 96-well flat bottom plate at a density of 1×10^4 cells/well. Cell viability was measured by an MTT (3-(4,5-Dimethylthiazol-2-yl)-2,5-diphenyltetrazolium bromide) assay in triplicate (0.3-30 μM of test substance for […]) essentially as described by Mosmann (J. Immunol. Methods 65, 55-63, 1983) and quantified spectrophotometrically at 550 nm using a microplate reader (Molecular Devices, Sunnyvale, Calif.). […] For cell proliferation studies, cells were treated in triplicate with 0.1-10 μM of test substance for 24 h and assayed using a BrdU (5-bromo-2′-deoxyuridine) kit from Amersham (Uppsala, Sweden).

[2] = tested on: NIH 3T3 murine fibroblast cell line; assay: Cytotoxicity, MTT assay in 3T3 fibroblasts; type: cell-based, mouse
Experimental: as §1, §2, §3

[3] = tested on: 3T3 Swiss fibroblast monolayers; assay: Scratch wound closure in vitro; type: cell-based, mouse; settings: for Scratch wound closure at 5 μM, % of control: 12 h (Table 6)
Experimental: 3T3 fibroblasts were seeded into 24-well dishes at a concentration of 3×10^5 cells/ml and cultured to nearly confluent cell monolayers. On the day of the experiment, a linear wound was generated in the monolayer with a sterile 100 μl plastic pipette tip and any cellular debris was removed by washing cells once with sterile PBS. Fresh DMEM medium containing vehicle (0.1% ethanol), positive control (0.5% FBS), or various concentrations of the fractions, sub-fractions or pure compounds was added to a set of 3 wells per dose and incubated for 12 h at 37° C. with 5% CO2. Cells were then visualized with 20 μl of 10% methylene blue in PBS for 5 min. Three representative images of the scratched areas from each well were photographed at 0 and 12 h to estimate the scratch wound closure. Images were analyzed using ImageJ program (NIH, Bethesda, Md.) and % wound closure was calculated relative to vehicle control and was reported as wound closure % over control (Table 4). 3T3 Swiss fibroblast were seeded into 24-well tissue culture at a concentration of 3×10^5 cells/ml and cultured to nearly confluent cell monolayers. Then, a linear wound was generated in the monolayer with a sterile 100 μl plastic pipette tip. Any cellular debris was removed by washing with PBS. DMEM medium with vehicle (0.1% ethanol), FBS (1%, positive control), or various concentrations of brassinosteroids were added to a set of 3 wells per dose and incubated for 12 h at 37° C. with 5% CO2. Cells were visualized in 10% methylene blue for 5 minutes. Three representative images from each well of the scratched areas under each condition were photographed to estimate the relative migration of cells at 0 and 12 h post-treatment. Data were analyzed using ImageJ software available online from the National Institutes of Health (rsbweb.nih.gov/ij/) by calculating the percentage of scratch closure at each dose point relative to control.

L6 rat myotubes [4] = assay: Protein degradation, release of acid-soluble [3H]-phenylalanine; type: cell-based; settings: 10 μM, 4 h
Experimental: In some aspects, cell culture experiments were carried out. Rat L6 skeletal muscle cell line CRL-1458 was obtained from ATCC (Manassas, Va.). Myoblasts were routinely maintained in Dulbecco's modified Eagle's medium (DMEM) containing 10% FBS and 0.1% penicillin-streptomycin at 37° C. and 5% CO2. Cells were subcultured into 24-well plates for protein synthesis, degradation, and cell viability studies and into 6-well plates for Western blot analyses (Greiner Bio One, Monroe, N.C.). Once cells reached 90% confluence, differentiation was induced by lowering the serum concentration to 2%, and medium was changed every 2 days. […] NIH 3T3 murine embryonic fibroblast cell line (ATCC #CCL-92) was maintained in DMEM and 10% FBS at 37° C. in 5% CO2, and passaged every 3-4 days.
In various aspects, protein degradation is measured to determine the effect of brassinosteroid on a particular protein. All known methods for measuring protein degradation are included in the methods of the disclosure. The effect of brassinosteroids on protein degradation was investigated in fully differentiated myotubes as described by Fawcett et al. (Arch. Biochem. Biophys. 385:357-363, 2001) with slight modifications. Fully differentiated myotubes were incubated for 16 h to allow labeling of cellular proteins with 1.5 μCi/mL [^3H]-phenylalanine. […] The incubation was stopped by placing the cells on ice, and protein in the medium was precipitated with 5% trichloroacetic acid. Specific radioactivity of protein-free phenylalanine was quantified using liquid scintillation counter LS 6500 (Beckman Coulter, Fullerton, Calif.) and normalized to mg of total cell protein determined by BCA protein assay (Pierce Biotechnology, Rockford, Ill.).
The bioactivity of HB and its analogs (as shown in Table 3) were also evaluated by measuring decreases in protein degradation in the L6 rat skeletal muscle cells in vitro. Cells were labeled overnight with [^3H]-phenylalanine and subsequently treated for 4 h in triplicate with vehicle (0.1% ethanol) or test compound (10 μM), and protein degradation was assessed as release of acid-soluble [^3H]-phenylalanine into the media normalized by total protein (Table 3).

L6 rat myotubes [5] = assay: Protein synthesis, [3H]-phenylalanine incorporation in myotubes; type: cell-based; settings: 10 μM, 4 h
Experimental: In some aspects, cell culture experiments were carried out. Rat L6 skeletal muscle cell line CRL-1458 was obtained from ATCC (Manassas, Va.). Myoblasts were routinely maintained in Dulbecco's modified Eagle's medium (DMEM) containing 10% FBS and 0.1% penicillin-streptomycin at 37° C. and 5% CO2. Cells were subcultured into 24-well plates for protein synthesis, degradation, and cell viability studies and into 6-well plates for Western blot analyses (Greiner Bio One, Monroe, N.C.). Once cells reached 90% confluence, differentiation was induced by lowering the serum concentration to 2%, and medium was changed every 2 days. After 7-9 days of culture the myoblasts had fused into multinucleated myotubes (Mandel et al., Nature 251:618-620, 1974). NIH 3T3 murine embryonic fibroblast cell line (ATCC #CCL-92) was maintained in DMEM and 10% FBS at 37° C. in 5% CO2, and passaged every 3-4 days.
In various aspects, protein synthesis is measured to determine the effect of brassinosteroid on a particular protein. All known methods for measuring protein synthesis are included in the methods of the disclosure. In brassinosteroid dose response studies, fully differentiated myotubes were washed with serum-free DMEM and treated in triplicate with vehicle (0.1% ethanol), increasing concentrations of HB, or 6.5 nM of insulin-like growth factor-1 (IGF-1) as a positive control. Compounds were added to serum-free medium containing 0.5 μCi/mL [^3H]-phenylalanine and incubated for 4 h. For the HB time course study, fully differentiated myotubes were treated with 3 μM HB for 1-24 h using the same culture conditions. The incubation was stopped by placing cells on ice, discarding the medium, and washing the cells extensively with ice-cold PBS to remove the non-incorporated radiolabel. Proteins were precipitated with 5% trichloroacetic acid and dissolved in 0.5N NaOH (Montgomery et al., Methods Cell. Sci. 24:123-129, 2002). Specific radioactivity of protein-bound phenylalanine was quantified using liquid scintillation counter LS 6500 (Beckman Coulter, Fullerton, Calif.) and normalized to mg of total protein determined by BCA protein assay (Pierce Biotechnology, Rockford, Ill.).
The bioactivity of HB and its analogs was evaluated by measuring increases in protein synthesis in the L6 rat skeletal muscle cells in vitro. Cells were incubated for 4 h with [^3H]-phenylalanine and treated in triplicate with vehicle (0.1% ethanol) or test compound (10 μM), and protein synthesis was measured as incorporation of [^3H]-phenylalanine into protein normalized by total protein (Table 3). Under these conditions, both HB and (22S,23S)-homocastasterone increased protein synthesis by 37.2±5.9% (p<0.001) and 41.0±2.7% (p<0.001), respectively. This protein synthesis increase compared favorably to the biological activity of IGF-1 at 6.5 nM (42.5±4.5%, p<0.001) that served as a positive control in this assay. Removal of the 2α-hydroxyl group and fluorination at C-3 in the A ring (compound IDs 3-4 in Table 3) led to about a 50% decrease in bioactivity (24.6±5.3%, p<0.01 and 22.5±2.7%, p<0.01, respectively) compared to the positive control. However, there was still an increase in protein synthesis. […] Modifications in the side chain (compound IDs 7-9 in Table 3) abolished the activity.

3T3 mouse fibroblasts = assay: Cell proliferation, BrdU assay; type: cell-based; settings: 24 h
Experimental: as §3

[6] = tested on: 3T3 Swiss fibroblast monolayers; settings: PDGF 2 nM reference treatment, reported previously (Schmidt et al.); cited from earlier work

Molecule | Scratch wound closure at 5 μM, % of control [3] [%] | Protein degradation (% decrease over control) (L6 rat myotubes [4]) [%] | Protein synthesis (% increase over control) (L6 rat myotubes [5]) [%] | IC50 [2] [µM] | Cell proliferation at 5 μM, % of control (3T3 mouse fibroblasts) [%] | other results
CC(C)[C@@H](C)[C@@H](O)[C@H](O)[C@@H](C)[C@H]1CC[C@H]2[C@@H]3COC(=O)[C@H]4C[C@H](O)[C@H](O)C[C@]4(C)[C@H]3CC[C@]12C [24-Epibrassinolide] |  |  |  |  |  | median lethal dose (LD50) (mice): higher than 1000 mg/kg; median lethal dose (LD50) (rats): higher than 2000 mg/kg
CC[C@@H](C(C)C)[C@H](O)[C@@H](O)[C@@H](C)[C@H]1CC[C@H]2[C@@H]3CC(=O)[C@H]4C[C@H](F)CC[C@]4(C)[C@H]3CC[C@]12C [Compound 4, (22S,23S,24S)-3α-fluoro-22,23-dihydroxy-24-ethyl-5α-cholestan-6-one] | 27.7 ± 4.0 | −16.3 ± 4.2 | 22.5±2.7 |  |  | IC50 [1]: ~30 µM; cytotoxicity compared to the original brassinosteroids [2]: increased cytotoxicity; Wound Closure (% over control) ([3]; 10 μM, 12 h (Table 4)): 27.7 ± 4.0 %; fibroblast migration activity in words ([3]; 0.1-10 μM, 12 h): high activity, similar to HB
CC[C@@H](C(C)C)[C@@H](O)[C@H](O)[C@@H](C)[C@H]1CC[C@H]2[C@@H]3COC(=O)[C@H]4C[C@H](O)[C@H](O)C[C@]4(C)[C@H]3CC[C@]12C [Compound 7, (22R,23R,24S)-2α,3α-22,23-tetrahydroxy-24-ethyl-B-homo-7-oxa-5α-cholestan-6-one] | 16.5 ± 0.5 | −14.8 ± 3.8 | 13.1 ± 2.4 | > 30 | 29.1 ± 3.4 | 
CC(C)[C@H](C)[C@H](O)[C@@H](O)[C@@H](C)[C@H]1CC[C@H]2[C@@H]3COC(=O)[C@H]4C[C@@H](O)[C@H](O)C[C@]4(C)[C@H]3CC[C@]12C [Compound 8, (22S,23S,24R)-2α,3α-22,23-tetrahydroxy-24-methyl-B-homo-7-oxa-5α-cholestan-6-one] | 13.2 ± 1.5 | −5.4 ± 7.9 | 4.1 ± 1.7 | > 30 | 31.9 ± 5.3 | 
CC(C)C(C)C(O)C(O)C(C)C1CCC2C3COC(=O)C4CC(O)C(O)CC4(C)C3CCC12C [Compound 9, (22R,23R,24R)-2α,3α-22,23-tetrahydroxy-24-methyl-B-homo-7-oxa-5α-cholestan-6-one] | 8.1 ± 1.6 | −6.7 ± 7.9 | 11.7 ± 3.9 | > 30 | 31.0 ± 2.6 | 
PDGF |  |  |  |  |  | Scratch wound closure, % of control [6]: 64.8 ± 1.7 %
